Laboratory results as given in patent publication US12208080B2, “Compositions and methods for modulation of extracellular vesicle release and treatment of neurological disorders” (GEORGE MASON RESEARCH FOUNDATION, INC., priority 2018, dated 2025).

Tested on: autophagy proteins (p62, LC3, ATG12-ATG5, ATG12, Beclin-1) in U1 cells
Test: Autophagy protein profile, CBD versus autophagy drugs, in U1 cells and their EVs (Western blot)
Type: cell-based
Conditions: 5 days, Rapamycin 50 nM, INK128 50 nM
Description: FIGS. 18A-18B are gels showing CBD promotes autophagy turnover, resulting in a decrease in extracellular autophagosomal secretion. A) U1 cells (1×10^6) were treated±CBD (10 μM) for the following incubation periods: 0, 6, 24, and 48 hours. Cells were pelleted and lysed, exosomes from supernatants were enriched with NT80/82 beads overnight at 4° C. Samples were run through SDS-PAGE and western blotted for autophagy proteins (p62 and LC3), and Actin. B) U1 cells (1×10^6) were treated±10 μM CBD (every day), Rapamycin (50 nM), INK128 (50 nM), Bafilomycin A1 (50 nM), SB 203580 (20 μM), Wortmannin (2 nM) for a 5-day incubation period. Cells were pelleted and lysed, exosomes from supernatants were enriched using NT80/82 beads overnight at 4° C. Samples were run through SDS-PAGE and western blotted for autophagy proteins (p62, LC3, ATG12-ATG5, ATG12, Beclin-1), and Actin.
FIGS. 21A-21K are graphs showing normalized densitometry analysis of CBD and autophagy drug treatment on HIV-1 infected monocytes. Intracellular (A) p62, (B) LC3 I, (C) LC3 II, (D) ATG12-ATG5 complex, (E) ATG12, and (F) Beclin-1, and extracellular (G) p62, (H) LC3 I, (I) LC3 II, (J) ATG12-ATG5 complex, and (K) Beclin-1 densitometry counts were calculated from the Western blot data in FIG. 5B, normalized to respective intracellular and extracellular Actin levels, and plotted.
To determine the specific points at which CBD inhibits intracellular and extracellular autophagosome formation and secretion, we compared CBD treatment of U1 monocytes with known inhibitors of different points in the autophagy pathway. Cell viability was assessed among a panel of titrated autophagy drugs and the least toxic concentration per drug was utilized (FIG. 20). We treated U1 cells with CBD (10 μM) every day, Rapamycin (50 nM), INK128 (50 nM), Bafilomycin A1 (50 nM), SB 203580 (20 μM), or Wortmannin (2 nM) for 5 days. Our rationale for using these drugs was that they regulate different steps of autophagy including nucleation inhibition by inhibiting MTOR activity (Rapamycin, INK128) or by inhibiting pre-autophagosomal VPS34 complex activity (Wortmannin, SB 203580), and autophagosome-lysosome fusion inhibition (Bafilomycin A1). Therefore, a side-by-side comparison to CBD would potentially allow for a better definition of which step of autophagosome formation is primarily regulated by CBD. U1 cells were treated with the autophagy regulators and harvested along with their corresponding supernatants for further analysis using Western blot against p62, LC3, ATG12-ATG5 complex, free ATG12, Beclin-1, and Actin. Results in FIG. 18B (intracellular proteins, top panel) show autophagy protein profiles associated with the various autophagy regulators. […] The corresponding supernatants were enriched for EVs and also analyzed for the presence of autophagy proteins.

[1] = CBD 10 μM every day, FIG. 18B top panel
[2] = CBD 10 μM, Bafilomycin A1 50 nM, SB 203580 20 μM, Wortmannin 2 nM, lower panel

C=C(C)[C@@H]1CCC(C)=C[C@H]1c1c(O)cc(CCCCC)cc1O [CBD, 2-[1R-3-methyl-6R-(1-methylethenyl)-2-cyclohexen-1-yl]-5-pentyl-1,3-benzenediol]
intracellular ATG12-ATG5 [1]: low levels
intracellular Beclin-1 [1]: high levels
intracellular LC3 I [1]: low levels
EV-associated LC3 I [2]: reduction
EV-associated p62 [2]: reduction
